These results are taken from ChEMBL document CHEMBL1255461, “KPC-producing extreme drug-resistant Klebsiella pneumoniae isolate from a patient with diabetes mellitus and chronic renal failure on hemodialysis in South Korea” (2010).

≈ marks a conversion by molar mass, not a printed value. A value given as a limit tells only on which side of the number the result lay.

This experiment concerns Klebsiella pneumoniae. Put plainly: Antimicrobial activity against multidrug-resistant Klebsiella pneumoniae isolate Kpn-DK2 by broth microdilution method. It counts as functional. In general terms: In broth dilution the organism is exposed to a series of concentrations in liquid medium.
Broadly, the MIC is the lowest concentration found to suppress growth. Higher therefore signals a less susceptible organism. Consider `COc1cc(Cc2cnc(N)nc2N)cc(OC)c1OC` [TRIMETHOPRIM], for which the MIC was > 32 µg/mL.

In turn, `C[C@]1(Cn2ccnn2)[C@H](C(=O)O)N2C(=O)C[C@H]2S1(=O)=O` [TAZOBACTAM] gave an MIC of 4 µg/mL (≈ 13.3 µM).

In the case of `CCN1CCN(C(=O)N[C@@H](C(=O)N[C@@H]2C(=O)N3[C@@H]2SC(C)(C)[C@@H]3C(=O)O)c2ccccc2)C(=O)C1=O` [PIPERACILLIN], the MIC is > 256 µg/mL.

As to GENTAMICIN, the minimal inhibitory concentration (MIC) is > 64 µg/mL.

Consider POLYMYXIN B, for which the MIC is > 64 µg/mL.

Regarding COLISTIN, the MIC is > 64 µg/mL.

In the case of `C[C@@H](O)[C@H]1C(=O)N2C(C(=O)O)=C(S[C@@H]3CN[C@H](CNS(N)(=O)=O)C3)[C@H](C)[C@H]12` [DORIPENEM], the MIC is 16 µg/mL (≈ 38 µM).

As to `CO/N=C(\C(=O)N[C@@H]1C(=O)N2C(C(=O)[O-])=C(C[N+]3(C)CCCC3)CS[C@H]12)c1csc(N)n1`, the MIC was > 64 µg/mL.

For the molecule `CO/N=C(\C(=O)N[C@@H]1C(=O)N2C(C(=O)O)=C(COC(C)=O)CS[C@H]12)c1csc(N)n1` [CEFOTAXIME], the MIC was > 128 µg/mL.

As to `Nc1nc(/C(=N/O)C(=O)N[C@@H]2C(=O)N3C(C(=O)O)=C(/C=C4\CCN([C@@H]5CCNC5)C4=O)CS[C@H]23)ns1` [CEFTOBIPROLE], the MIC was > 32 µg/mL.

On to `CC1(C)S[C@@H]2[C@H](NC(=O)[C@H](N)c3ccccc3)C(=O)N2[C@H]1C(=O)O` [AMPICILLIN], for which the MIC is > 64 µg/mL.

Regarding `CC1(C)[C@H](C(=O)O)N2C(=O)C[C@H]2S1(=O)=O` [SULBACTAM], it took 32 µg/mL (≈ 137 µM) to inhibit growth (MIC).

`CN(C)c1cc(NC(=O)CNC(C)(C)C)c(O)c2c1C[C@H]1C[C@H]3[C@H](N(C)C)C(O)=C(C(N)=O)C(=O)[C@@]3(O)C(O)=C1C2=O` [TIGECYCLINE] had a minimum inhibitory concentration (MIC) of 4 µg/mL (≈ 6.83 µM).

Turning to `CCN1CCN(C(=O)N[C@@H](C(=O)N[C@@H]2C(=O)N3C(C(=O)O)=C(CSc4nnnn4C)CS[C@H]23)c2ccc(O)cc2)C(=O)C1=O` [CEFOPERAZONE], the MIC was > 64 µg/mL.

As to `CC(C)(O/N=C(\C(=O)N[C@@H]1C(=O)N2C(C(=O)[O-])=C(C[n+]3ccccc3)CS[C@H]12)c1csc(N)n1)C(=O)O` [CEFTAZIDIME], the MIC is > 64 µg/mL.

As for `C[C@H]1[C@H](NC(=O)/C(=N\OC(C)(C)C(=O)O)c2csc(N)n2)C(=O)N1S(=O)(=O)O` [AZTREONAM], the MIC was > 64 µg/mL.

On to `C[C@@H](O)[C@H]1C(=O)N2C(C(=O)O)=C(SCCNC=N)C[C@H]12` [IMIPENEM ANHYDROUS], for which the lowest concentration to inhibit growth (MIC) was 32 µg/mL (≈ 107 µM).
